# Calls of active or inactive are those of the source. The rule behind the calls is not given here.
# Molecular target: Epidermal growth factor receptor (Homo sapiens, UniProt P00533)
# Assay: not given
# Assay type: ADME
# Details: not given
row,SMILES,IC50
1,CN(C)C/C=C/C(=O)NCCSc1nc(-c2ccc(F)cc2)c(-c2ccnc(Nc3ccccc3)c2)[nH]1,2.7 nM
2,N#CCCSc1nc(-c2ccc(F)cc2)c(-c2ccnc(Nc3ccccc3)c2)[nH]1,109 nM
3,CSc1nc(-c2ccc(F)cc2)c(-c2ccnc(Nc3cc(N4CCN(C)CC4)cc([N+](=O)[O-])c3)c2)[nH]1,2.1 nM
4,C=CC(=O)Nc1ccc(OC)c(Nc2cc(-c3[nH]c(SC)nc3C3CCCC3)ccn2)c1,< 1 nM
5,C=CC(=O)Nc1ccc(OC)c(Nc2cc(-c3[nH]c(SC)nc3C)ccn2)c1,32 nM
6,C=CC(=O)Nc1cccc(Nc2cc(-c3[nH]c(SC)nc3-c3ccc(F)cc3)ccn2)c1,< 1 nM
7,C=CC(=O)Nc1ccc(OC)c(Nc2cc(-c3[nH]c(SC)nc3C3CCC3)ccn2)c1,< 1 nM
8,NCCCSc1nc(-c2ccc(F)cc2)c(-c2ccnc(Nc3ccccc3)c2)[nH]1,55 nM
9,C=CC(=O)N1CCC(Sc2nc(-c3ccc(F)cc3)c(-c3ccnc(Nc4ccccc4)c3)[nH]2)C1 (stereo not given),217 nM
10,C=CC(=O)NCCSc1nc(-c2ccccc2)c(-c2ccnc(Nc3ccccc3)c2)[nH]1,12 nM
11,C=CC(=O)Nc1ccc(OC)c(Nc2cc(-c3[nH]c(SC)nc3-c3cccs3)ccn2)c1,< 1 nM
12,CCC(=O)NCCSc1nc(-c2ccc(F)cc2)c(-c2ccnc(Nc3ccccc3)c2)[nH]1,33 nM
13,CCC(=O)Nc1ccc(OC)c(Nc2cc(-c3cnc(SC)[nH]3)ccn2)c1,1770 nM
14,OCCSc1nc(-c2ccc(F)cc2)c(-c2ccnc(Nc3ccccc3)c2)[nH]1,11 nM
15,C=CC(=O)Nc1cccc(Nc2cc(-c3[nH]c(SCCNC(=O)CC)nc3-c3ccccc3)ccn2)c1,< 1 nM

# Test system: Epidermal growth factor receptor (Homo sapiens), P00533 [T790M]
# Assay: Covalent binding affinity to EGFR T790M mutant (unknown origin) at 100 uM after 1 hr by mass spectrometric analysis
# Details: not given
row,SMILES,Activity
1,C=CC(=O)Nc1ccc(OC)c(Nc2cc(-c3[nH]c(SC)nc3-c3ccc(F)cc3)ccn2)c1,Active
2,C=CC(=O)Nc1cccc(Nc2cc(-c3[nH]c(SC)nc3-c3ccc(F)cc3)ccn2)c1,Active

# Molecular target: Epidermal growth factor receptor (Homo sapiens, UniProt P00533, L858R)
# Assay: not given
# Details: not given
row,SMILES,IC50
1,CN(C)C/C=C/C(=O)NCCSc1nc(-c2ccc(F)cc2)c(-c2ccnc(Nc3ccccc3)c2)[nH]1,1.9 nM
2,N#CCCSc1nc(-c2ccc(F)cc2)c(-c2ccnc(Nc3ccccc3)c2)[nH]1,40 nM
3,CSc1nc(-c2ccc(F)cc2)c(-c2ccnc(Nc3cc(N4CCN(C)CC4)cc([N+](=O)[O-])c3)c2)[nH]1,< 1 nM
4,C=CC(=O)Nc1ccc(OC)c(Nc2cc(-c3[nH]c(SC)nc3C3CCCC3)ccn2)c1,< 1 nM
5,C=CC(=O)Nc1ccc(OC)c(Nc2cc(-c3[nH]c(SC)nc3C)ccn2)c1,10 nM
6,C=CC(=O)Nc1cccc(Nc2cc(-c3[nH]c(SC)nc3-c3ccc(F)cc3)ccn2)c1,< 1 nM
7,C=CC(=O)Nc1ccc(OC)c(Nc2cc(-c3[nH]c(SC)nc3C3CCC3)ccn2)c1,< 1 nM
8,NCCCSc1nc(-c2ccc(F)cc2)c(-c2ccnc(Nc3ccccc3)c2)[nH]1,12 nM
9,C=CC(=O)N1CCC(Sc2nc(-c3ccc(F)cc3)c(-c3ccnc(Nc4ccccc4)c3)[nH]2)C1 (stereo not given),25 nM
10,C=CC(=O)NCCSc1nc(-c2ccccc2)c(-c2ccnc(Nc3ccccc3)c2)[nH]1,1.7 nM
11,C=CC(=O)Nc1ccc(OC)c(Nc2cc(-c3[nH]c(SC)nc3-c3cccs3)ccn2)c1,< 1 nM
12,CCC(=O)NCCSc1nc(-c2ccc(F)cc2)c(-c2ccnc(Nc3ccccc3)c2)[nH]1,3.2 nM
13,CCC(=O)Nc1ccc(OC)c(Nc2cc(-c3cnc(SC)[nH]3)ccn2)c1,360 nM
14,OCCSc1nc(-c2ccc(F)cc2)c(-c2ccnc(Nc3ccccc3)c2)[nH]1,1.1 nM
15,C=CC(=O)Nc1cccc(Nc2cc(-c3[nH]c(SCCNC(=O)CC)nc3-c3ccccc3)ccn2)c1,< 1 nM

# Test system: A-431
# Assay: cells
# Assay type: ADME, cell-based
# Details: Homo sapiens, A-431, 96 h
# Description: Antiproliferative activity against human A431 cells harboring wild type EGFR assessed as growth inhibition after 96 hrs by CellTiter-Glo assay
row,SMILES,EC50
1,C=CC(=O)Nc1cccc(Oc2nc(Nc3ccc(N4CCN(C)CC4)cc3OC)ncc2Cl)c1,2200 nM
2,CN(C)C(=O)CSc1nc(-c2ccc(F)cc2)c(-c2ccnc(Nc3ccccc3)c2)[nH]1,18000 nM
3,C=CC(=O)Nc1ccc(OC)c(Nc2cc(-c3[nH]c(SC)nc3-c3ccc(F)cc3)ccn2)c1,4100 nM
5,C=CC(=O)N1CCC[C@H]1CSc1nc(-c2ccc(F)cc2)c(-c2ccnc(Nc3ccccc3)c2)[nH]1,8800 nM
6,CN(C)C/C=C/C(=O)NCCSc1nc(-c2ccc(F)cc2)c(-c2ccnc(Nc3ccccc3)c2)[nH]1,6600 nM
7,N#CCCSc1nc(-c2ccc(F)cc2)c(-c2ccnc(Nc3ccccc3)c2)[nH]1,17000 nM
8,CSc1nc(-c2ccc(F)cc2)c(-c2ccnc(Nc3cc(N4CCN(C)CC4)cc([N+](=O)[O-])c3)c2)[nH]1,7800 nM
9,C=CC(=O)Nc1ccc(OC)c(Nc2cc(-c3[nH]c(SC)nc3C3CCCC3)ccn2)c1,7800 nM
10,C=CC(=O)Nc1ccc(OC)c(Nc2cc(-c3[nH]c(SC)nc3C)ccn2)c1,9700 nM
11,C=CC(=O)Nc1cccc(Nc2cc(-c3[nH]c(SC)nc3-c3ccc(F)cc3)ccn2)c1,1700 nM
12,C=CC(=O)Nc1ccc(OC)c(Nc2cc(-c3[nH]c(SC)nc3C3CCC3)ccn2)c1,8900 nM
13,NCCCSc1nc(-c2ccc(F)cc2)c(-c2ccnc(Nc3ccccc3)c2)[nH]1,7400 nM
14,C=CC(=O)N1CCC(Sc2nc(-c3ccc(F)cc3)c(-c3ccnc(Nc4ccccc4)c3)[nH]2)C1 (stereo not given),17000 nM
15,C=CC(=O)NCCSc1nc(-c2ccccc2)c(-c2ccnc(Nc3ccccc3)c2)[nH]1,11000 nM
16,C=CC(=O)Nc1ccc(OC)c(Nc2cc(-c3[nH]c(SC)nc3-c3cccs3)ccn2)c1,7400 nM
17,C=CC(=O)N1CCC[C@@H]1CSc1nc(-c2ccc(F)cc2)c(-c2ccnc(Nc3ccccc3)c2)[nH]1,6900 nM
18,CCC(=O)NCCSc1nc(-c2ccc(F)cc2)c(-c2ccnc(Nc3ccccc3)c2)[nH]1,16000 nM
19,CCC(=O)Nc1ccc(OC)c(Nc2cc(-c3cnc(SC)[nH]3)ccn2)c1,13000 nM
20,OCCSc1nc(-c2ccc(F)cc2)c(-c2ccnc(Nc3ccccc3)c2)[nH]1,11000 nM
21,C=CC(=O)Nc1cccc(Nc2cc(-c3[nH]c(SCCNC(=O)CC)nc3-c3ccccc3)ccn2)c1,1500 nM

# Test system: not listed separately
# Assay: Drug degradation in human liver microsomes at 100 uM preincubated for 5 mins with NADPH-regenerating system followed by liver microsomes addition measured after 240 mins by LC-MS analysis
# Assay type: ADME, microsome
# Details: read-out: Drug degradation
row,SMILES,"metabolised at 4 h, 100 µM"
1,C=CC(=O)Nc1ccc(OC)c(Nc2cc(-c3[nH]c(SC)nc3-c3ccc(F)cc3)ccn2)c1,23%

# Molecular target: Epidermal growth factor receptor (Homo sapiens, UniProt P00533, L858R/T790M)
# Assay: not given
# Details: not given
row,SMILES,IC50
1,CN(C)C/C=C/C(=O)NCCSc1nc(-c2ccc(F)cc2)c(-c2ccnc(Nc3ccccc3)c2)[nH]1,18 nM
2,N#CCCSc1nc(-c2ccc(F)cc2)c(-c2ccnc(Nc3ccccc3)c2)[nH]1,746 nM
3,CSc1nc(-c2ccc(F)cc2)c(-c2ccnc(Nc3cc(N4CCN(C)CC4)cc([N+](=O)[O-])c3)c2)[nH]1,12 nM
4,C=CC(=O)Nc1ccc(OC)c(Nc2cc(-c3[nH]c(SC)nc3C3CCCC3)ccn2)c1,4.5 nM
5,C=CC(=O)Nc1ccc(OC)c(Nc2cc(-c3[nH]c(SC)nc3C)ccn2)c1,33 nM
6,C=CC(=O)Nc1cccc(Nc2cc(-c3[nH]c(SC)nc3-c3ccc(F)cc3)ccn2)c1,3.3 nM
7,C=CC(=O)Nc1ccc(OC)c(Nc2cc(-c3[nH]c(SC)nc3C3CCC3)ccn2)c1,6.8 nM
8,NCCCSc1nc(-c2ccc(F)cc2)c(-c2ccnc(Nc3ccccc3)c2)[nH]1,240 nM
9,C=CC(=O)N1CCC(Sc2nc(-c3ccc(F)cc3)c(-c3ccnc(Nc4ccccc4)c3)[nH]2)C1 (stereo not given),417 nM
10,C=CC(=O)NCCSc1nc(-c2ccccc2)c(-c2ccnc(Nc3ccccc3)c2)[nH]1,29 nM
11,C=CC(=O)Nc1ccc(OC)c(Nc2cc(-c3[nH]c(SC)nc3-c3cccs3)ccn2)c1,< 1 nM
12,CCC(=O)NCCSc1nc(-c2ccc(F)cc2)c(-c2ccnc(Nc3ccccc3)c2)[nH]1,52 nM
13,CCC(=O)Nc1ccc(OC)c(Nc2cc(-c3cnc(SC)[nH]3)ccn2)c1,3510 nM
14,OCCSc1nc(-c2ccc(F)cc2)c(-c2ccnc(Nc3ccccc3)c2)[nH]1,83 nM
15,C=CC(=O)Nc1cccc(Nc2cc(-c3[nH]c(SCCNC(=O)CC)nc3-c3ccccc3)ccn2)c1,2.5 nM

# Test system: NCI-H1975
# Assay: cells
# Assay type: functional, cell-based
# Details: Homo sapiens, NCI-H1975, 96 h
row,SMILES,EC50
1,C=CC(=O)Nc1cccc(Oc2nc(Nc3ccc(N4CCN(C)CC4)cc3OC)ncc2Cl)c1,100 nM
2,CN(C)C(=O)CSc1nc(-c2ccc(F)cc2)c(-c2ccnc(Nc3ccccc3)c2)[nH]1,16000 nM
3,C=CC(=O)Nc1ccc(OC)c(Nc2cc(-c3[nH]c(SC)nc3-c3ccc(F)cc3)ccn2)c1,< 14 nM
5,C=CC(=O)N1CCC[C@H]1CSc1nc(-c2ccc(F)cc2)c(-c2ccnc(Nc3ccccc3)c2)[nH]1,4700 nM
6,CN(C)C/C=C/C(=O)NCCSc1nc(-c2ccc(F)cc2)c(-c2ccnc(Nc3ccccc3)c2)[nH]1,> 5000 nM
7,N#CCCSc1nc(-c2ccc(F)cc2)c(-c2ccnc(Nc3ccccc3)c2)[nH]1,16000 nM
8,CSc1nc(-c2ccc(F)cc2)c(-c2ccnc(Nc3cc(N4CCN(C)CC4)cc([N+](=O)[O-])c3)c2)[nH]1,13000 nM
9,C=CC(=O)Nc1ccc(OC)c(Nc2cc(-c3[nH]c(SC)nc3C3CCCC3)ccn2)c1,1400 nM
10,C=CC(=O)Nc1ccc(OC)c(Nc2cc(-c3[nH]c(SC)nc3C)ccn2)c1,4100 nM
11,C=CC(=O)Nc1cccc(Nc2cc(-c3[nH]c(SC)nc3-c3ccc(F)cc3)ccn2)c1,190 nM
12,C=CC(=O)Nc1ccc(OC)c(Nc2cc(-c3[nH]c(SC)nc3C3CCC3)ccn2)c1,2000 nM
13,NCCCSc1nc(-c2ccc(F)cc2)c(-c2ccnc(Nc3ccccc3)c2)[nH]1,8400 nM
14,C=CC(=O)N1CCC(Sc2nc(-c3ccc(F)cc3)c(-c3ccnc(Nc4ccccc4)c3)[nH]2)C1 (stereo not given),14000 nM
15,C=CC(=O)NCCSc1nc(-c2ccccc2)c(-c2ccnc(Nc3ccccc3)c2)[nH]1,3200 nM
16,C=CC(=O)Nc1ccc(OC)c(Nc2cc(-c3[nH]c(SC)nc3-c3cccs3)ccn2)c1,84 nM
17,C=CC(=O)N1CCC[C@@H]1CSc1nc(-c2ccc(F)cc2)c(-c2ccnc(Nc3ccccc3)c2)[nH]1,3400 nM
18,CCC(=O)NCCSc1nc(-c2ccc(F)cc2)c(-c2ccnc(Nc3ccccc3)c2)[nH]1,9700 nM
19,CCC(=O)Nc1ccc(OC)c(Nc2cc(-c3cnc(SC)[nH]3)ccn2)c1,> 30000 nM
20,OCCSc1nc(-c2ccc(F)cc2)c(-c2ccnc(Nc3ccccc3)c2)[nH]1,16000 nM
21,C=CC(=O)Nc1cccc(Nc2cc(-c3[nH]c(SCCNC(=O)CC)nc3-c3ccccc3)ccn2)c1,2800 nM
